Reference: PubChem BioAssay AID1259407 (Chemical Carcinogenesis Research Information System (CCRIS), 2018)
Calls of active or inactive are those of the source. The rule behind the calls is not given here.

Tested on: CCRIS mutagenicity, Ames/micronucleus/aberration tests
Assay: CCRIS mutagenicity studies
[1] = Test System: AMES SALMONELLA TYPHIMURIUM, Strain/Indicator: TA98, Metabolic Activation: HAMSTER, LIVER, S-9, AROCLOR 1254, Method: STANDARD PLATE
[2] = Test System: AMES SALMONELLA TYPHIMURIUM, Strain/Indicator: TA98, Metabolic Activation: NONE, Method: STANDARD PLATE
[3] = Test System: AMES SALMONELLA TYPHIMURIUM, Strain/Indicator: TA98, Metabolic Activation: RAT, LIVER, S-9, AROCLOR 1254, Method: STANDARD PLATE
[4] = Test System: AMES SALMONELLA TYPHIMURIUM, Strain/Indicator: TA100, Metabolic Activation: HAMSTER, LIVER, S-9, AROCLOR 1254, Method: STANDARD PLATE
[5] = Test System: AMES SALMONELLA TYPHIMURIUM, Strain/Indicator: TA100, Metabolic Activation: NONE, Method: STANDARD PLATE
[6] = Test System: AMES SALMONELLA TYPHIMURIUM, Strain/Indicator: TA100, Metabolic Activation: RAT, LIVER, S-9, AROCLOR 1254, Method: STANDARD PLATE
[7] = Test System: Mouse lymphoma, Strain/Indicator: L5178Y (tk+/tk-), Metabolic Activation: None, Method: Suspension/plate
[8] = Test System: Mouse lymphoma, Strain/Indicator: L5178Y (tk+/tk-), Metabolic Activation: Rat, Liver, S-9, Aroclor 1254, Method: Suspension/plate
[9] = Test System: AMES SALMONELLA TYPHIMURIUM, Strain/Indicator: TA1535, Metabolic Activation: NONE, Method: PREINCUBATION
[10] = Test System: AMES SALMONELLA TYPHIMURIUM, Strain/Indicator: TA1537, Metabolic Activation: NONE, Method: PREINCUBATION
[11] = Test System: AMES SALMONELLA TYPHIMURIUM, Strain/Indicator: TA100, Metabolic Activation: RAT, LIVER, S-9, AROCLOR 1254, Method: PREINCUBATION

## CC(=O)CC(C)(C)O
[1]
  mutagenic call: inactive; negative
[2]
  mutagenic call: inactive; negative
[3]
  mutagenic call: inactive; negative
[4]
  mutagenic call: inactive; negative
[5]
  mutagenic call: inactive; negative
[6]
  mutagenic call: inactive; negative
Test System: AMES SALMONELLA TYPHIMURIUM, Strain/Indicator: TA1535, Metabolic Activation: HAMSTER, LIVER, S-9, AROCLOR 1254, Method: STANDARD PLATE
  mutagenic call: inactive; negative
Test System: AMES SALMONELLA TYPHIMURIUM, Strain/Indicator: TA1535, Metabolic Activation: NONE, Method: STANDARD PLATE
  mutagenic call: inactive; negative
Test System: AMES SALMONELLA TYPHIMURIUM, Strain/Indicator: TA1535, Metabolic Activation: RAT, LIVER, S-9, AROCLOR 1254, Method: STANDARD PLATE
  mutagenic call: inactive; negative
Test System: AMES SALMONELLA TYPHIMURIUM, Strain/Indicator: TA1537, Metabolic Activation: HAMSTER, LIVER, S-9, AROCLOR 1254, Method: STANDARD PLATE
  mutagenic call: inactive; negative
Test System: AMES SALMONELLA TYPHIMURIUM, Strain/Indicator: TA1537, Metabolic Activation: NONE, Method: STANDARD PLATE
  mutagenic call: inactive; negative
Test System: AMES SALMONELLA TYPHIMURIUM, Strain/Indicator: TA1537, Metabolic Activation: RAT, LIVER, S-9, AROCLOR 1254, Method: STANDARD PLATE
  mutagenic call: inactive; negative
Test System: AMES SALMONELLA TYPHIMURIUM, Strain/Indicator: TA1538, Metabolic Activation: HAMSTER, LIVER, S-9, AROCLOR 1254, Method: STANDARD PLATE
  mutagenic call: inactive; negative
Test System: AMES SALMONELLA TYPHIMURIUM, Strain/Indicator: TA1538, Metabolic Activation: NONE, Method: STANDARD PLATE
  mutagenic call: inactive; negative
Test System: AMES SALMONELLA TYPHIMURIUM, Strain/Indicator: TA1538, Metabolic Activation: RAT, LIVER, S-9, AROCLOR 1254, Method: STANDARD PLATE
  mutagenic call: inactive; negative
[7]
  mutagenic call: inactive; negative
[8]
  mutagenic call: inactive; negative

## O=NC1=Cc2nc3ccccn3c2NC1
[2]
  mutagenic call: active; positive
Test System: AMES SALMONELLA TYPHIMURIUM, Strain/Indicator: TA98, Metabolic Activation: RAT, LIVER, CYTOSOL, AROCLOR 1254, Method: STANDARD PLATE
  mutagenic call: active; positive
Test System: AMES SALMONELLA TYPHIMURIUM, Strain/Indicator: TA98, Metabolic Activation: RAT, LIVER, MICROSOMES, AROCLOR 1254, Method: STANDARD PLATE
  mutagenic call: inactive; negative
[3]
  mutagenic call: active; positive

## N#Cc1cccc(/C=C\c2ccc([N+](=O)[O-])cc2)c1
Test System: AMES SALMONELLA TYPHIMURIUM, Strain/Indicator: TA98(NR), Metabolic Activation: NONE, Method: STANDARD PLATE
  mutagenic call: active; positive
Test System: AMES SALMONELLA TYPHIMURIUM, Strain/Indicator: TA98 (NR), Metabolic Activation: S-9, Method: STANDARD PLATE
  mutagenic call: active; positive
[2]
  mutagenic call: active; positive
Test System: AMES SALMONELLA TYPHIMURIUM, Strain/Indicator: TA98, Metabolic Activation: S-9, Method: STANDARD PLATE
  mutagenic call: active; positive
Test System: AMES SALMONELLA TYPHIMURIUM, Strain/Indicator: TA100 (NR), Metabolic Activation: NONE, Method: STANDARD PLATE
  mutagenic call: inactive; negative
Test System: AMES SALMONELLA TYPHIMURIUM, Strain/Indicator: TA100 (NR), Metabolic Activation: S-9, Method: STANDARD PLATE
  mutagenic call: inactive; negative
[5]
  mutagenic call: active; positive
Test System: AMES SALMONELLA TYPHIMURIUM, Strain/Indicator: TA100, Metabolic Activation: S-9, Method: STANDARD PLATE
  mutagenic call: active; positive

## C[n+]1c2ccccc2cc2ccc(N)cc21
[9]
  mutagenic call: inactive; negative
Test System: AMES SALMONELLA TYPHIMURIUM, Strain/Indicator: TA1535, Metabolic Activation: RAT, LIVER, S-9, TETRACHLOROBIPHENYL, Method: PREINCUBATION
  mutagenic call: inactive; negative
[10]
  mutagenic call: active; positive
Test System: AMES SALMONELLA TYPHIMURIUM, Strain/Indicator: TA1537, Metabolic Activation: RAT, LIVER, S-9, TETRACHLOROBIPHENYL, Method: PREINCUBATION
  mutagenic call: active; positive
Test System: AMES SALMONELLA TYPHIMURIUM, Strain/Indicator: TA1538, Metabolic Activation: NONE, Method: PREINCUBATION
  mutagenic call: inactive; negative
Test System: AMES SALMONELLA TYPHIMURIUM, Strain/Indicator: TA1538, Metabolic Activation: RAT, LIVER, S-9, TETRACHLOROBIPHENYL, Method: PREINCUBATION
  mutagenic call: active; positive
Test System: AMES SALMONELLA TYPHIMURIUM, Strain/Indicator: TA1977, Metabolic Activation: NONE, Method: PREINCUBATION
  mutagenic call: active; positive
Test System: AMES SALMONELLA TYPHIMURIUM, Strain/Indicator: TA1977, Metabolic Activation: RAT, LIVER, S-9, TETRACHLOROBIPHENYL, Method: PREINCUBATION
  mutagenic call: active; positive
Test System: AMES SALMONELLA TYPHIMURIUM, Strain/Indicator: TA1978, Metabolic Activation: RAT, LIVER, S-9, TETRACHLOROBIPHENYL, Method: PREINCUBATION
  mutagenic call: inactive; negative

## C1CNCCN1
Test System: AMES SALMONELLA TYPHIMURIUM, Strain/Indicator: TA98, Metabolic Activation: HAMSTER, LIVER, S-9, AROCLOR 1254, Method: PREINCUBATION
  mutagenic call: inactive; negative
Test System: AMES SALMONELLA TYPHIMURIUM, Strain/Indicator: TA98, Metabolic Activation: NONE, Method: PREINCUBATION
  mutagenic call: inactive; negative
Test System: AMES SALMONELLA TYPHIMURIUM, Strain/Indicator: TA98, Metabolic Activation: RAT, LIVER, S-9, AROCLOR 1254, Method: PREINCUBATION
  mutagenic call: inactive; negative
Test System: AMES SALMONELLA TYPHIMURIUM, Strain/Indicator: TA98, Metabolic Activation: RAT, LIVER, S-9, PCB, Method: PREINCUBATION
  mutagenic call: inactive; negative
Test System: AMES SALMONELLA TYPHIMURIUM, Strain/Indicator: TA100, Metabolic Activation: HAMSTER, LIVER, S-9, AROCLOR 1254, Method: PREINCUBATION
  mutagenic call: inactive; negative
Test System: AMES SALMONELLA TYPHIMURIUM, Strain/Indicator: TA100, Metabolic Activation: NONE, Method: PREINCUBATION
  mutagenic call: inactive; negative
[11]
  mutagenic call: inactive; negative
Test System: AMES SALMONELLA TYPHIMURIUM, Strain/Indicator: TA100, Metabolic Activation: RAT, LIVER, S-9, PCB, Method: PREINCUBATION
  mutagenic call: inactive; negative
Test System: AMES SALMONELLA TYPHIMURIUM, Strain/Indicator: TA1535, Metabolic Activation: HAMSTER, LIVER, S-9, AROCLOR 1254, Method: PREINCUBATION
  mutagenic call: inactive; negative
[9]
  mutagenic call: inactive; negative
Test System: AMES SALMONELLA TYPHIMURIUM, Strain/Indicator: TA1535, Metabolic Activation: RAT, LIVER, S-9, AROCLOR 1254, Method: PREINCUBATION
  mutagenic call: inactive; negative
Test System: AMES SALMONELLA TYPHIMURIUM, Strain/Indicator: TA1537, Metabolic Activation: HAMSTER, LIVER, S-9, AROCLOR 1254, Method: PREINCUBATION
  mutagenic call: inactive; negative
[10]
  mutagenic call: inactive; negative
Test System: AMES SALMONELLA TYPHIMURIUM, Strain/Indicator: TA1537, Metabolic Activation: RAT, LIVER, S-9, AROCLOR 1254, Method: PREINCUBATION
  mutagenic call: inactive; negative

## Fc1ccnc2ccccc12
[11]
  mutagenic call: active; positive
Test System: UDS RODENT HEPATOCYTES, Strain/Indicator: THY INCORP (NON-S-PHASE), Metabolic Activation: NONE, Method: AUTORADIOGRAPHY
  mutagenic call: inactive; negative

## OC/C=C/Cl
[5]
  mutagenic call: inactive; negative
Test System: AMES SALMONELLA TYPHIMURIUM, Strain/Indicator: TA100, Metabolic Activation: RAT, LIVER, S-9, PCB, Method: STANDARD PLATE
  mutagenic call: active; positive

## O=C1NC(=O)C(CCl)=C1Cl
[5]
  mutagenic call: active; positive

## COc1cc2c(cc1O)CCN[C@]21CS[C@@H]2c3c(OC(C)=O)c(C)c4c(c3[C@H](COC1=O)N1[C@@H]2[C@H]2c3c(cc(C)c(OC)c3O)C[C@@H]([C@@H]1O)N2C)OCO4
[1]
  mutagenic call: active; positive
[2]
  mutagenic call: inactive; negative
[3]
  mutagenic call: active; positive
[4]
  mutagenic call: inactive; negative
[5]
  mutagenic call: inactive; negative
[6]
  mutagenic call: inactive; negative
[7]
  mutagenic call: active; positive
[8]
  mutagenic call: active; positive
